Columns and labels:
D3 mouse ES cell line = test: Differentiation of D3 mouse ES cells to beta cell phenotype, insulin release and insulin/C-peptide content; type: cell-based
Description: The D3 mouse ES cell line was routinely cultured on tissue culture plastic coated with 0.1% (w/v) gelatine in DMEM (25 mM glucose) containing 15% foetal bovine serum (FBS), 2 mM glutamine, 50 U/ml penicillin/streptomycin, non-essential amino acids, 0.1 mM β-mercaptoethanol, and 1000 U/ml LIF (leukaemia inhibitory factor). Medium was changed daily and cultures were passaged every 2 days onto fresh geletin-coated plates at a split ratio of 1:5. The cells were passaged by washing the cultures with phosphate-buffer saline and then detached from the plate with a trypsin (2.5 g/L)-EDTA (1 mM) solution. Prior to seeding into new flasks the ES cells were dissociated to single cells suspensions by repeated pipetting.
For differentiation of D3 mouse ES cells, an established protocol was used (Lumelsky, N. et al., 2001, Science 292(5520):1389-94). Briefly, LIF was removed from the culture medium, EBs (embryonic bodies) were then formed by growing the cells as non-adherent clusters. For the selection of nestin positive precursor cells, medium was changed to serum free ITSFn medium and for expanding these progenitors, cells were incubated in N2 serum free medium for 7 days (stage 4) and then differentiated into insulin-containing cell clusters by incubation in N2 serum free medium without bFGF, supplemented with 10 mM nicotinamide for 7 days (stage 5) (control protocol). […] The differentiated cells were harvested at the end of stage 4 and 5 and samples were seeded onto 24 well plates for insulin and C-peptide studies. Insulin release from differentiated cells from stages 4 and 5 were determined using cell monolayers. The cells were harvested with the aid of trypsin/EDTA (Gibco), seeded into 24-multiwell plates (Nunc, Rosklide, Denmark) at a density of 0.1×10^6 cells per well, and allowed to attach overnight.
Prior to the acute test, cells were washed three times and preincubated for 40 minutes at 37° C. in a 1.0 ml Krebs Ringer bicarbonate buffer (115 mM NaCl, 4.7 mM KCl, 1.28 mM CaCl2, 1.2 mM KH2PO4, 1.2 mM MgSO4, 10 mM NaHCO3, 5 g/l bovine serum albumin, pH 7.4) supplemented with 1.1 mM glucose. Test incubations were performed for 20 minutes at 37° C. using the same buffer supplemented with 5.6 mM glucose in the absence (control) and presence of various test agents as indicated in the Figures. After incubation, aliquots of buffer were removed and stored at −20° C. for insulin radioimmunoassay. For assessment of cellular hormone contents, the buffer was completely removed and […] of acid-ethanol solution (1.5% (v/v) HCl, 75% (v/v) ethanol, 23.5% (v/v) H2O) was added. The cells were disrupted with the aid of a pasture pipette and incubated overnight at 4° C. prior to centrifugation (900 rpm) and stored at −20° C.

[1] = target: purified porcine dipeptidyl peptidase IV (Sus scrofa, UniProt P22411); test: DPP IV degradation, % intact peptide by HPLC; type: in vitro ADME; conditions: 37° C., pH 7.8
Chain of purified porcine dipeptidyl peptidase IV (P22411 whole entry): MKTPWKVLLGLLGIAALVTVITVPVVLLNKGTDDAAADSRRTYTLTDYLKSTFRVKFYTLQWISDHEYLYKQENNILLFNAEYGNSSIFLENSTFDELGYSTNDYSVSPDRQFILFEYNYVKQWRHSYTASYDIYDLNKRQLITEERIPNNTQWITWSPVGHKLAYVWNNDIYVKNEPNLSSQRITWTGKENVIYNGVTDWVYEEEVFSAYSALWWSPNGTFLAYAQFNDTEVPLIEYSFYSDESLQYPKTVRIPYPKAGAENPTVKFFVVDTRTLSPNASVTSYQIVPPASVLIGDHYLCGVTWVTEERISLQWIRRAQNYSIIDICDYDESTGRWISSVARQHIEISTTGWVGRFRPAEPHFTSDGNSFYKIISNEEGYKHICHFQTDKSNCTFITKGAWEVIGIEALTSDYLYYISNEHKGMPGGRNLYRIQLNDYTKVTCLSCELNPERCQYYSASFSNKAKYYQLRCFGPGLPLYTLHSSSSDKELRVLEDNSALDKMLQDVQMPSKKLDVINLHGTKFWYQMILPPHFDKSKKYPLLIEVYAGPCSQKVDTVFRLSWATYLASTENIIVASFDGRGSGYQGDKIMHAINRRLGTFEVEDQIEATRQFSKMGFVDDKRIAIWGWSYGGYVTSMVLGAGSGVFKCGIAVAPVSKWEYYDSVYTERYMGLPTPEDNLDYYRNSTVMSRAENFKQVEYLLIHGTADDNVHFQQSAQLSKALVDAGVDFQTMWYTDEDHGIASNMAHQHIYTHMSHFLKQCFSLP
Description: (§1) HPLC peak area data were used to calculate the percentage intact peptide remaining at the various time points during the incubation.

dipeptidyl peptidase IV = dipeptidyl peptidase IV (Sus scrofa, UniProt P22411); test: DPP IV degradation, % intact peptide by HPLC; type: in vitro ADME, porcine; conditions: pig, purified porcine dipeptidyl peptidase IV (DPP IV), 37° C., pH 7.8
Chain of dipeptidyl peptidase IV (P22411 whole entry): as above
Description: as §1

ob/ob mice = test: Acute glucose lowering and insulin release, peptide given i.p. with glucose to 18 hour fasted ob/ob mice
Description: Obese diabetic (ob/ob) mice derived from the colony maintained at Aston University, UK (23) were used at 12-16 weeks of age. […] Drinking water and standard rodent maintenance diet (Trouw Nutrition, Cheshire, UK) were freely available.
Food intake and body weight were recorded daily from 5 days before commencement of the treatment regimes. Plasma glucose and insulin concentrations (10:00 h) were monitored at 2-4 day intervals. […] All acute tests were commenced at 10:00 h. […] Serum samples were taken for determination of glucagon concentrations. All other blood samples were collected from the cut tip of the tail vein of conscious mice into chilled fluoride/heparin coated glucose microcentrifuge tubes (Sarstedt, Nümbrecht, Germany) at the times indicated in the Figures. Blood samples were immediately centrifuged using a Beckman microcentrifuge (Beckman Instruments, Galway, Ireland) for 30 seconds at 13,000×g. The resulting plasma was then aliquoted into fresh tubes and stored at −20° C. prior to glucose and insulin determinations.

human GIP receptor = target: T1, human GIP receptor (Homo sapiens, UniProt P48546); test: Intracellular cAMP production in GIP-receptor transfected CHL cells; type: cell-based
T1 construct: expressed in transfected cells; host or cells: Chinese hamster lung (CHL) fibroblasts
T1 sequence (P48546 22-466): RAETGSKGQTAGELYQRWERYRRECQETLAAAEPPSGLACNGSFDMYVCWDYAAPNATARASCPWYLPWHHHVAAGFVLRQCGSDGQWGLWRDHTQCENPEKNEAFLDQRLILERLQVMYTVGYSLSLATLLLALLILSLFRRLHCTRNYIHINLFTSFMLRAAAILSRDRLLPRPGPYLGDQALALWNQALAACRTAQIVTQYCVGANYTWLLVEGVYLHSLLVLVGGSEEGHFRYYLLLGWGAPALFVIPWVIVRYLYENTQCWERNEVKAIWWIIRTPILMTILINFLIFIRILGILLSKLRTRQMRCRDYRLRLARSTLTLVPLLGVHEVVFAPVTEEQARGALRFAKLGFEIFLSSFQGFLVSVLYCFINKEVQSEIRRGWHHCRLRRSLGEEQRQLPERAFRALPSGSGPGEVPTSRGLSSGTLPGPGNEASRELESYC
Description: The cells were then incubated at 37° C. for 6 hours in 1 ml DMEM, supplemented with 0.5% (w/v) BSA and subsequently washed twice with HBS buffer (Hanks Buffered Saline solution). […] The medium was subsequently removed and the cells lysed with 1 ml of 5% trichloroacetic acid containing 0.1 mM unlabelled cAMP and 0.1 mM unlabelled ATP. The intracellular tritiated cAMP was then separated on Dowex and alumina exchange resins (Life Science Research, Larne, UK).

[2] = culture media supplemented with 1×10^-6 M peptide, Stage 4
[3] = culture media supplemented with 1×10^-6 M peptide, Stage 5

Q: `CCCCCCCCCCCCCCCC(=O)NCCCC[C@H](NC(=O)[C@H](CC(=O)O)NC(=O)[C@H](CCSC)NC(=O)[C@H](C)NC(=O)[C@@H](NC(=O)[C@H](CO)NC(=O)[C@H](Cc1ccc(O)cc1)NC(=O)[C@H](CC(=O)O)NC(=O)[C@H](CO)NC(=O)[C@@H](NC(=O)[C@H](Cc1ccccc1)NC(=O)[C@@H](NC(=O)CNC(=O)[C@H](CCC(=O)O)NC(=O)[C@H](C)NC(=O)[C@@H](N)Cc1ccc(O)cc1)[C@@H](C)O)[C@@H](C)CC)[C@@H](C)CC)C(=O)N[C@H](C(=O)N[C@@H](Cc1c[nH]cn1)C(=O)N[C@@H](CCC(N)=O)C(=O)N[C@@H](CCC(N)=O)C(=O)N[C@@H](CC(=O)O)C(=O)N[C@@H](Cc1ccccc1)C(=O)N[C@H](C(=O)N[C@@H](CC(N)=O)C(=O)N[C@@H](Cc1c[nH]c2ccccc12)C(=O)N[C@@H](CC(C)C)C(=O)N[C@@H](CC(C)C)C(=O)N[C@@H](C)C(=O)N[C@@H](CCC(N)=O)C(=O)N[C@@H](CCCCN)C(=O)NCC(=O)N[C@@H](CCCCN)C(=O)N[C@@H](CCCCN)C(=O)N[C@@H](CC(N)=O)C(=O)N[C@@H](CC(=O)O)C(=O)N[C@@H](Cc1c[nH]c2ccccc12)C(=O)N[C@@H](CCCCN)C(=O)N[C@@H](Cc1c[nH]cn1)C(=O)N[C@@H](CC(N)=O)C(=O)N[C@H](C(=O)N[C@H](C(=O)N[C@@H](CCC(N)=O)C(=O)O)[C@@H](C)O)[C@@H](C)CC)C(C)C)[C@@H](C)CC` [GIP(LysPAL^16)] was tested. Which “glucose-induced insulin release of differentiated stage 4 cells, modified versus control protocol” value (D3 mouse ES cell line; 1×10^-6 M peptide in media, stage 4, 0-22.0 mM glucose) did it give?
A: The value was “significantly higher”.

Q: And the “response of differentiated stage 5 cells to glucose” value (D3 mouse ES cell line; 1×10^-6 M peptide in media, stage 5)?
A: The value was “appear not respond to glucose”.

Q: And the “increase in C-peptide content compared to control, stage 4” value (D3 mouse ES cell line; 1×10^-6 M peptide, stage 4)?
A: The value was 1.5 fold.

Q: What about the “increase in C-peptide content compared to control, stage 5” value (D3 mouse ES cell line; 1×10^-6 M peptide, stage 5) of the same compound?
A: The value was 1.3 fold.

Q: What about the “C-Peptide content of differentiated D3 cluster cells, Stage 4” value (D3 mouse ES cell line; [2]) of the same compound?
A: Its value is 124.5 ± 3.13 pmol/mg protein/20 mins.

Q: And the “Insulin content of differentiated D3 cluster cells, Stage 4” value (D3 mouse ES cell line; [2])?
A: The value was 9154 ± 291.1 pmol/mg protein/20 mins.

Q: And the “C-Peptide content of differentiated D3 cluster cells, Stage 5” value (D3 mouse ES cell line; [3])?
A: Its value is 121.9 ± 3.43 pmol/mg protein/20 mins.

Q: What about the “Insulin content of differentiated D3 cluster cells, Stage 5” value (D3 mouse ES cell line; [3]) of the same compound?
A: Its value is 8532 ± 626.5 pmol/mg protein/20 mins.

Q: What about the “% Intact peptide remaining after time (h) 0” value ([1]; 0 h incubation with DPP IV (5 mU)) of the same compound?
A: Its value is 100%.

Q: What about the “% Intact peptide remaining after time (h) 24” value ([1]; 24 h incubation with DPP IV (5 mU)) of the same compound?
A: Its value is “remained fully intact”.

Q: And the remaining at 2 h, 2 mM (dipeptidyl peptidase IV; 2 h incubation with DPP IV (5 mU), read-out: % Intact peptide remaining after time (h) 2)?
A: Its remaining at 2 h, 2 mM is 100%.

Q: And the remaining at 8 h, 2 mM (dipeptidyl peptidase IV; 8 h incubation with DPP IV (5 mU), read-out: % Intact peptide remaining after time (h) 8)?
A: The remaining at 8 h, 2 mM was 100%.

Q: And the remaining at 24 h, 2 mM (dipeptidyl peptidase IV; 24 h incubation with DPP IV (5 mU), read-out: % Intact peptide remaining after time (h) 24)?
A: Its remaining at 24 h, 2 mM is 100%.

Q: And the “plasma glucose concentrations and AUC (0-60 min) compared to glucose alone” value (ob/ob mice; 25 nmol/kg i.p. with glucose 18 mmol/kg)?
A: The value was “significantly reduced”.

Q: And the “overall enhancement of insulin release over native GIP” value (ob/ob mice; 25 nmol/kg i.p. with glucose, insulin AUC 0-60 min)?
A: Its value is 2.4 fold.

Q: What about the EC50 (human GIP receptor) of the same compound?
A: Its EC50 is 2.9 nM.
